Experimental data taken from patent US10350315B2, “Quinoline-3-carboxamide compounds and their use in diagnosis” (Westfaelische Wihelms-Universitaet Muenster, priority 2014, dated 2019).
Entries after “also recorded” stand apart in the source; their conditions may differ.

How the values were obtained:
S100A9 [1] = molecular target: T1, S100A9 (Mus musculus, UniProt P31725); assay: Collagen induced arthritis mouse model, SPECT/CT; type: in vivo, DBA/1j mice; settings: 55 MBq per mouse i.v.
T1 construct: from tissue; host or cells: living mice (inflamed ear, joints) and explanted mouse heart, aorta and lungs
T1 sequence (P31725 2-113 limits assumed): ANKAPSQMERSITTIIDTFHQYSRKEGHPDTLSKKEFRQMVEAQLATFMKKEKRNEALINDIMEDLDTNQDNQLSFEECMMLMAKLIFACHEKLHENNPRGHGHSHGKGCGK
Description: FIG. 20: Accumulation of [^99mTc]FEB054 in a mouse model of collagen induced arthritis. The tracer was intravenously injected at a dose of 55 MBq per mouse. […] The tracer distribution was measured in vivo 60 min post injection using SPECT/CT.
Induction and imaging of CIA: Arthritis was induced in DBA/1j mice by injection of bovine collagen type II. Bovine collagen type II (bCII, MD Biosciences) was dissolved in 0.05 M acetic acid at a concentration of 2 mg/ml. DBA/1j mice were injected subcutaneously at the tail base with 100 μg bCII emulsified in CFA (Difco) and boostered on day 21 with 100 μg bCII in IFA at the same location. Mice were regularly inspected from day 14 after disease induction and scored for swelling, erythema and deformation of each joint three times a week. Imaging was performed after arthritis was clinically detectable in the majority of treated animals at indicated time points after tracer application of either Cy5.5-CES271 or [99mTc]FEB054.
SPECT/CT imaging of inflamed joints was recorded 1 h after iv injection of [99mTc]FEB054 (55 MBq of [99mTc]FEB054 per mouse). Individual feet of the mice were analysed separately according to the histological score. […] Even single affected joints could be clearly identified.

S100A9 [2] = molecular target: T1, S100A9; assay: Irritant contact dermatitis (ICD) mouse model, SPECT/CT; type: in vivo, mice; settings: 66 MBq per mouse i.v.
Description: FIG. 19: Accumulation of [^99mTc]FEB054 in the inflamed ear and muscle in a mouse model of contact dermatitis (ICD). The tracer was intravenously in a mouse model of contact dermatitis of the left ear in WT mice (=inflamed, right hand side) at a dose of 66 MBq per mouse and measured 0-60 min post injection.
Mice were injected and scanned under isoflurane/oxygen inhalation anaesthesia (1.4-1.8% isoflurane, 0.5 l O2/min). All animals were injected with a target dose of 2.5 MBq/g body weight) and a total injection volume ≤150 μl. […] Data analysis was performed by CT based definitions of regions-of-interest and quantitative mesurements are expressed as kBq/mL.
ICD was induced by the application of 20 μl 1% croton oil in olive oil-acetone (1:4) to the ventral surface of the left ear of mice for 24 h (n=5 per group), whereas the right ear served as a control. […] In the Cy7 channel the quantum yield is much lower compared to the Cy5.5 channel, which means that the recorded signal with Cy5.5-CES271 is higher than compared to […] (right image; FIG. 21). […] The labelling efficacy (dye/antibody ratio) was determined on the basis of ultraviolet-spectra of the purified dye-antibody compound using PBS as a reference buffer. […]

[3] = Human blood serum stability at 37 °C (gradient HPLC); type: in vitro ADME; settings: freshly prepared human blood serum, over 120 min
Description: FIG. 17: Human serum blood stability of [^99mTc]FEB054. […] Blood serum stability was tested in freshly prepared human blood serum at 37° C. Samples were taken after 10, 20, 30, 60, 90 and 120 minutes and analysed using a gradient HPLC system. 5 MBq of [^99mTc]FEB054 in 20 μL PBS buffer was added to 200 μL of a freshly prepared human blood serum sample and incubated at 37° C. After 10, 20, 30, 60, 90 and 120 minutes, 20 μL were separated and diluted with 50 μL dichloromethane and 50 μL methanol. After centrifugation, 10 μL of the solution were analyzed via gradient-HPLC using a Knauer system with two Smartline 1000 pumps, Smartline UV detector 2500 (Herbert Knauer GmbH), a GabiStar γ-detector (Raytest lsotopenmessgeräte GmbH) and a reversed phase C18 column (Nucleosil 100-5 C-18 column 4.6 mm×250 mm). Eluent A: water (0.1% TFA). Eluent B: Methanol (0.1% TFA). […]
Blood serum stability was tested in freshly prepared human blood serum at 37° C. […] Samples were taken after 10, 20, 30, 60, 90 and 120 minutes and analysed using a gradient HPLC system. […] After centrifugation, 10 μl of the solution were analysed via gradient-HPLC using a Knauer system with two Smartline1000 pumps, Smartline UV-detector 2500 (Herbert Knauer GmbH), a GabiStar γ-detector (Raytest lsotopenmessgeräte GmbH) and a reverse phase […] column 4.6 mm×250 mm). […]

[4] = Biodistribution and elimination of [99mTc]FEB054 in healthy Balb/c mice (SPECT/CT); type: in vivo
Description: FIG. 18: Biodistribution (A) and elimination (B) of [^99mTc]FEB054 in healthy Balb/c mice. The tracer was intravenously injected at a dose of 62 MBq per mouse. The tracer accumulation and elimination was measured 0-90 min post injection.
Mice were injected and scanned under isoflurane/oxygen inhalation anaesthesia (1.4-1.8% isoflurane, 0.5 l O2/min). All animals were injected with a target dose of 2.5 MBq/g body weight) and a total injection volume ≤150 μl. For the image acquisition we used a NanoSPECT/CT-Plus preclinical camera (Mediso Medical Imaging Systems; Hungary), a 4-head gamma camera equipped with multi-pinhole collimators and a cone beam CT imaging system. In the shown studies we employed 9 pinholes/head with a diameter of 1.0 mm and a field of view of 30 mm×16 mm. 10 projections/scan and 60 seconds/projection resulting in a minimum of 100 kcounts/projection (in order to achieve high quality images with high statistics) were acquired. At the end of the SPECT measurement a CT scan was performed (same FOV as the SPECT scan) (55 kVp; 180 projections/rotation; 500 ms exposure time and 1 mm pitch with constant statistics). Data analysis was performed by CT based definitions of regions-of-interest and quantitative mesurements are expressed as kBq/mL.

Correlation of SPECT signal with clinical scoring (S100A9 [1]; 1 h after injection): excellent correlation | Tracer accumulation in liver, intestines, kidneys and urinary bladder (S100A9 [1]; 60 min post injection): intensive tracer accumulation | Accumulation of the tracer in the liver and intestines ([4]; 62 MBq per mouse i.v.): intensive accumulation | Time of hepato-biliary elimination ([4]; 62 MBq per mouse i.v.): ≤ 20 min | Route of elimination ([4]; 62 MBq per mouse i.v., 0-90 min post injection): predominant hepato-biliary elimination | Tracer availability in the blood ([4]; 62 MBq per mouse i.v., first 10 minutes): good tracer availability in the blood | Blood half-life ([4]; mouse, in vivo): suitable
Substance: fac-[^99mTc(CO)3(5-ethyl-4-hydroxy-1-methyl-N-{1-(1-methyl-1H-imidazol-2-yl)-2-[(1-methyl-1H-imidazol-2-yl)methyl]-5,8,11-trioxa-2-azatridecan-13-yl}-2-oxo-N-phenyl-1,2-dihydroquinoline-3-carboxamide)]^+ [[^99mTc]FEB054]
Tracer accumulation in inflamed joints of the hind limbs versus healthy control mouse (S100A9 [1]; 60 min post injection): tracer accumulation in the inflamed joints | Tracer uptake in the inflamed ear compared to the healthy control ear (S100A9 [2]; 45 minutes post injection): higher tracer uptake | Uptake ratios inflamed ear versus blood and muscle (S100A9 [2]; dynamic imaging 0-60 min post injection): increasing uptake ratios | Human blood serum stability (decomposition) [3]: very good; also recorded: no decomposition
